Test system: MV-4-11 cells
Test: Gene expression microarray analysis (Affymetrix PrimeView) and GSEA
Type: cell-based, human
Parameters: RFU PODN (11730768_x_at) / Fold change /veh PODN (11730768_x_at) / RFU LINC00158 (11744669_a_at) / Fold change /veh LINC00158 (11744669_a_at) / RFU DUSP10 (11751237_a_at) / Fold change /veh DUSP10 (11751237_a_at) / RFU ID3 (11757404_x_at) / Fold change /veh ID3 (11757404_x_at) / RFU PLEKHG5 (11737974_s_at) / Fold change /veh PLEKHG5 (11737974_s_at) / RFU LRRC4B (11730491_at) / Fold change /veh LRRC4B (11730491_at) / RFU GIMAP4 (11747438_a_at) / Fold change /veh GIMAP4 (11747438_a_at) / RFU KRT8 (11758183_x_at) / Fold change /veh KRT8 (11758183_x_at) / RFU CNN1 (11734310_a_at) / Fold change /veh CNN1 (11734310_a_at) / RFU VPS37D (11726825_at) / Fold change /veh VPS37D (11726825_at) / RFU C10orf10 (11716522_x_at) / Fold change /veh C10orf10 (11716522_x_at) / RFU KIR2DL2 /// KIR2DL4 /// KIR2DL5A /// KIR2DL5B /// KIR2DS1 /// KIR2DS2 /// KIR2DS3 /// KIR2DS4 /// KIR3DL3 /// KIR3DL3 /// KIR3DS1 (11738374_at) / Fold change /veh KIR2DL2 /// KIR2DL4 /// KIR2DL5A /// KIR2DL5B /// KIR2DS1 /// KIR2DS2 /// KIR2DS3 /// KIR2DS4 /// KIR3DL3 /// KIR3DL3 /// KIR3DS1 (11738374_at) / RFU C1QL1 (11718748_at) / Fold change /veh C1QL1 (11718748_at) / RFU TMPRSS4 (11747572_a_at) / Fold change /veh TMPRSS4 (11747572_a_at) / RFU HAMP (11756126_x_at) / Fold change /veh HAMP (11756126_x_at) / RFU RNFT2 (11725882_a_at) / Fold change /veh RNFT2 (11725882_a_at) / RFU NR4A2 (11747474_a_at) / Fold change /veh NR4A2 (11747474_a_at) / RFU ABCC12 (11746883_a_at) / Fold change /veh ABCC12 (11746883_a_at) / RFU TMEM136 (11760407_x_at) / Fold change /veh TMEM136 (11760407_x_at) / RFU CLDN22 /// WWC2 (11732394_at) / Fold change /veh CLDN22 /// WWC2 (11732394_at) / RFU HLA-DPB1 (11760878_x_at) / Fold change /veh HLA-DPB1 (11760878_x_at) / RFU SPINT1 (11716480_a_at) / Fold change /veh SPINT1 (11716480_a_at) / RFU GAP43 (11754022_s_at) / Fold change /veh GAP43 (11754022_s_at) / RFU A4GNT (11735810_at) / Fold change /veh A4GNT (11735810_at) / RFU PRB3 (11715151_x_at) / Fold change /veh PRB3 (11715151_x_at) / RFU TUBB4B (11761932_at) / Fold change /veh TUBB4B (11761932_at) / RFU CAPN14 (11732068_a_at) / Fold change /veh CAPN14 (11732068_a_at) / RFU TMCC2 (11721928_a_at) / Fold change /veh TMCC2 (11721928_a_at) / RFU IRGQ (11745062_a_at) / Fold change /veh IRGQ (11745062_a_at) / RFU FAM174B (11720279_a_at) / Fold change /veh FAM174B (11720279_a_at) / RFU TMPRSS4 (11748680_a_at) / Fold change /veh TMPRSS4 (11748680_a_at) / RFU FAM212B (11763350_a_at) / Fold change /veh FAM212B (11763350_a_at) / RFU PLEKHG5 (11743358_a_at) / Fold change /veh PLEKHG5 (11743358_a_at) / RFU ZSCAN30 (11745921_a_at) / Fold change /veh ZSCAN30 (11745921_a_at) / RFU CMKLR1 (11741424_a_at) / Fold change /veh CMKLR1 (11741424_a_at) / RFU LOC101060620 /// MAPK8IP1 (11723275_at) / Fold change /veh LOC101060620 /// MAPK8IP1 (11723275_at) / RFU SPTSSB (11747773_x_at) / Fold change /veh SPTSSB (11747773_x_at) / RFU PRSS12 (11739890_at) / Fold change /veh PRSS12 (11739890_at) / RFU BIN1 (11741810_x_at) / Fold change /veh BIN1 (11741810_x_at) / RFU WNT11 (11732464_a_at) / Fold change /veh WNT11 (11732464_a_at) / RFU C10orf10 (11716521_a_at) / Fold change /veh C10orf10 (11716521_a_at) / RFU C5orf56 (11738089_at) / Fold change /veh C5orf56 (11738089_at) / RFU CYB561 (11721691_x_at) / Fold change /veh CYB561 (11721691_x_at) / RFU ANKRD19P (11752326_a_at) / Fold change /veh ANKRD19P (11752326_a_at) / RFU OR2T12 /// OR2T33 /// OR2T8 (11738714_s_at) / Fold change /veh OR2T12 /// OR2T33 /// OR2T8 (11738714_s_at) / RFU VCAN (11748164_a_at) / Fold change /veh VCAN (11748164_a_at) / RFU JSRP1 (11732532_at) / Fold change /veh JSRP1 (11732532_at) / RFU KRTAP10-11 (11738290_x_at) / Fold change /veh KRTAP10-11 (11738290_x_at) / RFU MYO3A (11730013_a_at) / Fold change /veh MYO3A (11730013_a_at) / RFU EBF3 (11725865_a_at) / Fold change /veh EBF3 (11725865_a_at) / RFU CAMK2N1 (11719241_x_at) / Fold change /veh CAMK2N1 (11719241_x_at) / RFU C5orf56 (11738088_a_at) / Fold change /veh C5orf56 (11738088_a_at) / RFU OLFML3 (11715873_a_at) / Fold change /veh OLFML3 (11715873_a_at) / RFU LOC100653217 /// NTM (11731650_a_at) / Fold change /veh LOC100653217 /// NTM (11731650_a_at) / RFU MAPK11 (11762145_a_at) / Fold change /veh MAPK11 (11762145_a_at) / RFU FIZ1 (11724087_x_at) / Fold change /veh FIZ1 (11724087_x_at) / RFU OASL (11726364_x_at) / Fold change /veh OASL (11726364_x_at) / RFU SOX15 (11748057_x_at) / Fold change /veh SOX15 (11748057_x_at) / RFU CD79A (11719716_a_at) / Fold change /veh CD79A (11719716_a_at) / RFU HIST1H1D (11736915_at) / Fold change /veh HIST1H1D (11736915_at) / RFU CASKIN2 (11723855_a_at) / Fold change /veh CASKIN2 (11723855_a_at) / RFU LOC730098 (11760151_x_at) / Fold change /veh LOC730098 (11760151_x_at) / RFU OR4N2 (11742367_at) / Fold change /veh OR4N2 (11742367_at) / RFU PRRT2 (11749266_a_at) / Fold change /veh PRRT2 (11749266_a_at) / RFU SNX32 (11753110_a_at) / Fold change /veh SNX32 (11753110_a_at) / RFU CDHR5 (11726645_a_at) / Fold change /veh CDHR5 (11726645_a_at) / RFU RCAN1 (11760418_a_at) / Fold change /veh RCAN1 (11760418_a_at) / RFU FAM167A (11723789_a_at) / Fold change /veh FAM167A (11723789_a_at) / RFU FAM26E (11764081_at) / Fold change /veh FAM26E (11764081_at) / RFU ISYNA1 (11749810_s_at) / Fold change /veh ISYNA1 (11749810_s_at) / RFU ACY1 (11761880_at) / Fold change /veh ACY1 (11761880_at) / RFU 11764098_at / Fold change /veh 11764098_at / RFU SAMD14 (11745864_x_at) / Fold change /veh SAMD14 (11745864_x_at) / RFU NPB (11741838_a_at) / Fold change /veh NPB (11741838_a_at) / RFU TMPRSS6 (11731388_a_at) / Fold change /veh TMPRSS6 (11731388_a_at) / RFU KRTAP10-2 (11738614_at) / Fold change /veh KRTAP10-2 (11738614_at) / RFU ARHGAP8 /// PRR5-ARHGAP8 (11727945_x_at) / Fold change /veh ARHGAP8 /// PRR5-ARHGAP8 (11727945_x_at) / RFU KRTAP5-7 /// NADSYN1 (11734609_at) / Fold change /veh KRTAP5-7 /// NADSYN1 (11734609_at) / RFU RASL12 (11751679_a_at) / Fold change /veh RASL12 (11751679_a_at) / RFU CDKN2B (11736163_a_at) / Fold change /veh CDKN2B (11736163_a_at) / RFU PRF1 (11729649_at) / Fold change /veh PRF1 (11729649_at) / RFU, ZNF638 /// ZNF638-IT1 / Fold change vs veh, ZNF638 /// ZNF638-IT1 / RFU, PANK3 / Fold change vs veh, PANK3 / RFU, SH3YL1 / Fold change vs veh, SH3YL1 / RFU, ZEB2 / Fold change vs veh, ZEB2 / RFU, NRIP1 / Fold change vs veh, NRIP1 / RFU, PTTG1IP / Fold change vs veh, PTTG1IP / RFU, CAPN2 / Fold change vs veh, CAPN2 / RFU, MED14 / Fold change vs veh, MED14 / RFU, SNORA58 / Fold change vs veh, SNORA58 / RFU, C1orf63 / Fold change vs veh, C1orf63 / RFU, LRRFIP1 / Fold change vs veh, LRRFIP1 / RFU, NDUFAF7 / Fold change vs veh, NDUFAF7 / RFU, SLC12A2 / Fold change vs veh, SLC12A2 / RFU, IBTK / Fold change vs veh, IBTK / RFU, ESF1 / Fold change vs veh, ESF1 / Fold change vs veh, TMEM50B / RFU, TAOK1 / Fold change vs veh, TAOK1 / RFU, ACBD3 / Fold change vs veh, ACBD3 / RFU, TMA16 / Fold change vs veh, TMA16 / RFU, RWDD3 / Fold change vs veh, RWDD3 / RFU, BCAT1 / Fold change vs veh, BCAT1 / RFU, EDEM3 / Fold change vs veh, EDEM3 / RFU, TMEM33 / Fold change vs veh, TMEM33 / RFU, WDR75 / Fold change vs veh, WDR75 / RFU, AHCTF1 / Fold change vs veh, AHCTF1 / RFU, TFRC / Fold change vs veh, TFRC / RFU, ZDHHC17 / Fold change vs veh, ZDHHC17 / RFU, NOM1 / Fold change vs veh, NOM1 / RFU, ARL8B / Fold change vs veh, ARL8B / RFU, ZBTB11 / Fold change vs veh, ZBTB11 / RFU, TAMM41 / Fold change vs veh, TAMM41 / RFU, KIAA1704 /// LOC100996395 / Fold change vs veh, KIAA1704 /// LOC100996395 / RFU, ING1 / Fold change vs veh, ING1 / RFU, TRMT61B / Fold change vs veh, TRMT61B / RFU, FUBP3 / Fold change vs veh, FUBP3 / RFU, TP53 / Fold change vs veh, TP53 / RFU, TNKS2 / Fold change vs veh, TNKS2 / RFU, ZFP14 / Fold change vs veh, ZFP14 / RFU, ACTR2 / Fold change vs veh, ACTR2 / RFU, PPP3R1 / Fold change vs veh, PPP3R1 / RFU, PIK3R1 / Fold change vs veh, PIK3R1 / RFU, HNRNPA1 / Fold change vs veh, HNRNPA1 / RFU, RNF170 / Fold change vs veh, RNF170 / RFU, ZNF28 / Fold change vs veh, ZNF28 / RFU, RNGTT / Fold change vs veh, RNGTT / RFU, OGT / Fold change vs veh, OGT / RFU, BRD1 / Fold change vs veh, BRD1 / RFU, MARS / Fold change vs veh, MARS / RFU, ZNF655 / Fold change vs veh, ZNF655 / RFU, FAHD1 / Fold change vs veh, FAHD1 / RFU, BDP1 / Fold change vs veh, BDP1 / RFU, LRRCC1 / Fold change vs veh, LRRCC1 / RFU, ARID1A / Fold change vs veh, ARID1A / RFU, ZNF146 / Fold change vs veh, ZNF146 / RFU, ZNF330 / Fold change vs veh, ZNF330 / RFU, GPN3 / Fold change vs veh, GPN3 / RFU, C9orf123 / Fold change vs veh, C9orf123 / RFU, N4BP2L2 / Fold change vs veh, N4BP2L2 / RFU, ARFIP1 / Fold change vs veh, ARFIP1 / RFU, FAM179B / Fold change vs veh, FAM179B / RFU, BCL10 / Fold change vs veh, BCL10 / RFU, UHRF1BP1L / Fold change vs veh, UHRF1BP1L / RFU, BET1 / Fold change vs veh, BET1 / RFU, CNOT2 / Fold change vs veh, CNOT2 / RFU, ZNF268 / Fold change vs veh, ZNF268 / Fold change vs veh, ZNF507 / RFU, DGCR2 / Fold change vs veh, DGCR2 / RFU, WDSUB1 / Fold change vs veh, WDSUB1 / Fold change vs veh, HSP90B1 /// MIR3652 / RFU, ADSS / Fold change vs veh, ADSS / RFU, GK / Fold change vs veh, GK / RFU, ZNF148 / Fold change vs veh, ZNF148 / RFU, TAF9 / Fold change vs veh, TAF9 / RFU, SLC1A5 / Fold change vs veh, SLC1A5 / RFU, SLMO2 / Fold change vs veh, SLMO2 / RFU, ABCC4 / Fold change vs veh, ABCC4 / RFU, LOC101060439 /// RAP1B / Fold change vs veh, LOC101060439 /// RAP1B / RFU, RFX7 / Fold change vs veh, RFX7 / RFU, GTPBP10 / Fold change vs veh, GTPBP10 / RFU, CNEP1R1 / Fold change vs veh, CNEP1R1 / RFU, BIVM-ERCC5 /// ERCC5 / Fold change vs veh, BIVM-ERCC5 /// ERCC5 / RFU, ILF3 / Fold change vs veh, ILF3 / RFU 11762660_at / Fold change /veh 11762660_at / RFU VCAN (11757783_s_at) / Fold change /veh VCAN (11757783_s_at) / RFU DDX43 (11728927_at) / Fold change /veh DDX43 (11728927_at) / RFU KRT8 (11758188_x_at) / Fold change /veh KRT8 (11758188_x_at) / RFU NKD1 (11759106_at) / Fold change /veh NKD1 (11759106_at) / RFU SRD5A1 (11742802_a_at) / Fold change /veh SRD5A1 (11742802_a_at) / RFU TPSAB1 /// TPSB2 (11721975_s_at) / Fold change /veh TPSAB1 /// TPSB2 (11721975_s_at) / RFU GSTM3 (11746129_a_at) / Fold change /veh GSTM3 (11746129_a_at) / RFU IL23R (11737362_x_at) / Fold change /veh IL23R (11737362_x_at) / RFU TMEM51 (11727254_a_at) / Fold change /veh TMEM51 (11727254_a_at) / RFU PIWIL2 (11732686_x_at) / Fold change /veh PIWIL2 (11732686_x_at) / RFU ORM1 (11744905_x_at) / Fold change /veh ORM1 (11744905_x_at) / RFU CCDC152 (11743942_at) / Fold change /veh CCDC152 (11743942_at) / RFU ECM1 (11717891_a_at) / Fold change /veh ECM1 (11717891_a_at) / RFU IL23R (11748794_a_at) / Fold change /veh IL23R (11748794_a_at) / RFU TNFAIP8L3 (11732012_x_at) / Fold change /veh TNFAIP8L3 (11732012_x_at) / RFU MBOAT4 (11741988_at) / Fold change /veh MBOAT4 (11741988_at) / RFU 11764193_at / Fold change /veh 11764193_at / RFU TMEM53 (11763286_at) / Fold change /veh TMEM53 (11763286_at) / RFU MAGEB2 (11727129_at) / Fold change /veh MAGEB2 (11727129_at) / RFU TMEM200A (11744735_a_at) / Fold change /veh TMEM200A (11744735_a_at) / RFU CCDC152 (11751479_a_at) / Fold change /veh CCDC152 (11751479_a_at) / RFU FAM211A (11726209_a_at) / Fold change /veh FAM211A (11726209_a_at) / RFU RGS16 (11746705_a_at) / Fold change /veh RGS16 (11746705_a_at) / RFU VCAN (11755009_s_at) / Fold change /veh VCAN (11755009_s_at) / RFU RHOB (11743442_s_at) / Fold change /veh RHOB (11743442_s_at) / RFU RGS16 (11720943_a_at) / Fold change /veh RGS16 (11720943_a_at) / RFU RGS16 (11720944_at) / Fold change /veh RGS16 (11720944_at) / RFU, VPS4B / Fold change vs veh, VPS4B / RFU, CREB1 / Fold change vs veh, CREB1 / RFU, DNAJC13 / Fold change vs veh, DNAJC13 / RFU, GNAQ / Fold change vs veh, GNAQ / RFU, CDK5R1 / Fold change vs veh, CDK5R1 / RFU, ZRANB3 / Fold change vs veh, ZRANB3 / RFU, CUL4A / Fold change vs veh, CUL4A / RFU, CCNY / Fold change vs veh, CCNY / RFU, UFL1 / Fold change vs veh, UFL1 / RFU, COG3 / Fold change vs veh, COG3 / RFU, DIAPH2 / Fold change vs veh, DIAPH2 / RFU, SKA2 / Fold change vs veh, SKA2 / RFU, AFF3 / Fold change vs veh, AFF3 / RFU, LMF1 / Fold change vs veh, LMF1 / RFU, IPO11 / Fold change vs veh, IPO11 / RFU, DFFB / Fold change vs veh, DFFB / RFU, FOXP1 / Fold change vs veh, FOXP1 / RFU, CARD8 / Fold change vs veh, CARD8 / RFU, STRN3 / Fold change vs veh, STRN3 / RFU, ADK / Fold change vs veh, ADK / RFU, RASSF2 / Fold change vs veh, RASSF2 / RFU, WIPF1 / Fold change vs veh, WIPF1 / RFU, LARP1B / Fold change vs veh, LARP1B / RFU, RASA1 / Fold change vs veh, RASA1 / RFU, RB1 / Fold change vs veh, RB1 / RFU, PPFIA1 / Fold change vs veh, PPFIA1 / RFU, MAT2A / Fold change vs veh, MAT2A / RFU, CCT5 / Fold change vs veh, CCT5 / RFU, WDR92 / Fold change vs veh, WDR92 / RFU, CUX1 / Fold change vs veh, CUX1 / RFU, TTC7A / Fold change vs veh, TTC7A / RFU, TMEM135 / Fold change vs veh, TMEM135 / RFU, DEPTOR / Fold change vs veh, DEPTOR / RFU, CPM / Fold change vs veh, CPM / RFU, DNAJB6 / Fold change vs veh, DNAJB6 / RFU, CACNA2D3 / Fold change vs veh, CACNA2D3 / RFU, DTX4 / Fold change vs veh, DTX4 / RFU, TFCP2 / Fold change vs veh, TFCP2 / RFU, GMCL1 /// GMCL1P1 / Fold change vs veh, GMCL1 /// GMCL1P1 / RFU, AEBP2 / Fold change vs veh, AEBP2 / RFU, SNHG1 /// SNORD22 /// SNORD25 /// SNORD26 /// SNORD27 /// SNORD28 /// SNORD29 /// SNORD31 / Fold change vs veh, SNHG1 /// SNORD22 /// SNORD25 /// SNORD26 /// SNORD27 /// SNORD28 /// SNORD29 /// SNORD31 / Fold change (Aza/veh), C12orf56 (ProbeSet 11735607_a_at) / Fold change (ACY-1035/veh), C12orf56 (ProbeSet 11735607_a_at) / Fold change (Aza/veh), FGFR1OP (ProbeSet 11751329_s_at) / Fold change (ACY-1035/veh), FGFR1OP (ProbeSet 11751329_s_at) / Fold change (Aza/veh), VPS36 (ProbeSet 11739960_a_at) / Fold change (ACY-1035/veh), VPS36 (ProbeSet 11739960_a_at) / RFU SYPL1 (11715823_x_at) / Fold change /veh SYPL1 (11715823_x_at) / RFU IGFBP7 (11715501_s_at) / Fold change /veh IGFBP7 (11715501_s_at) / RFU REEP3 (11722064_at) / Fold change /veh REEP3 (11722064_at) / RFU IGLL1 (11728026_x_at) / Fold change /veh IGLL1 (11728026_x_at): dose or concentration left out as unconfirmed
Details: ProbeSet 11754362_a_at; LIST D

## Nc1ncn([C@@H]2O[C@H](CO)[C@@H](O)[C@H]2O)c(=O)n1 [azacitidine]
  RFU, TTC7A: 124.13 RFU

Reference: paper PMC5218480 (PLoS ONE, 2017)
